{"source": "patent US20170151266A1", "about": "“METHODS AND COMPOSITIONS FOR ENHANCED DRUG DELIVERY TO THE EYE AND EXTENDED DELIVERY FORMULATIONS” (THE REGENTS OF THE UNIVERSITY OF COLORADO, A BODY, priority 2011, published 2017)", "key": {"[1]": {"assay": "Pharmacokinetic model of budesonide succinate transport", "design": "species or system bovine", "settings": "PK model, A to B in presence of inhibitor (FIG. 4A)", "description": "Circles on left side (5 BSA; 6 B) represent the donor chamber whereas circles on right side (7 BSA; 8 B) represent the receiver chamber for BSA transport in A to B direction. 6 B and 8 B were included and represent budesonide formed/transported during the course of transport study. A separate compartment was included to account for the pro-drug/parent drug loss due to tissue absorption. K5>0 represents rate constant for drug loss into the tissue, K5>6 and K7>8 represent rate constants for pro-drug conversion into parent drug on donor and receiver side respectively. […] K5>7 Act represent active transport rate constant and contribution (0.5%) of active diffusion in BSA transport.\nThe model was developed in such a way that it accounted for transport of pro-drug from the donor to the receiver side, transport of parent drug formed in the donor chamber to the receiver side over the period of transport study, loss of pro-drug/drug into the tissues and any backward transport from the receiver to the donor side. The transport rate constants for parent drug and pro-drug were calculated from the cumulative percentage transport values. Rate constant for conversion of pro-drug to the parent drug was calculated from the percentage of the pro-drug and parent drug formed. Model was run with the dose amounts observed in the donor and receiver sides after 6 h transport studies. […]"}, "[2]": {"assay": "Ex vivo transscleral delivery after posterior subconjunctival injection in euthanized rats", "design": "species or system Brown Norway (BN) rats", "description": "All animals were handled according to the ARVO statement for the use of Animals in Ophthalmic and Vision Research. […] Drug suspensions were shaken before each posterior subconjunctival injection. Rats were divided into two groups. […] Twenty-five microliters of budesonide suspension was injected using a 30 G needle in the posterior subconjunctival space of one eye of each animal and the other eye was not treated. At the end of 1 h, eyes were enucleated and immediately frozen in dry ice and isopentane bath. All samples were stored at −80 ° C. until LCMS/MS analysis. […] At the end of 1 h, the eyes were enucleated and frozen in a similar manner as above until analysis. Periocular tissue samples were also collected from both the groups at the end of the study. Different ocular tissues including sclera, choroid-RPE, retina, and vitreous were isolated and analyzed for drug levels."}, "[3]": {"assay": "In vivo delivery of bevacizumab in rats, ocular fluorophotometry after intravitreal injection", "design": "species or system rat", "settings": "day 15", "description": "Rats were anesthetized by intraperitoneal injection of ketamine (35 mg/kg)/xylazine (5 mg/kg) and once the rats were under anesthesia, betadine solution was applied on the eye surface, and intravitreal injections were made using a 30-G needle. […] Baseline fluorescence values of eyes were monitored before injecting the formulations. At each time point, three fluorometric scans were taken and the mean value was used."}, "[4]": {"tested_on": "blood retinal barrier leakage", "settings": "diabetic rats; eye drops twice daily for 60 days; C-SA 0.2% w/v, C-SA-T 1.0% w/v", "experimental": "After overnight fasting for 12-16 h, an intraperitoneal injection of 30 mg/ml solution of streptozotocin in 10 mM citrate buffer (pH 4.5) was administered (60 mg/kg body weight) to induce diabetes. After 3-4 h of streptozotocin injection, animals were put on regular diet and 24 h after streptozotocin injection, blood sample (5-10 μl) was collected via tail vein. The blood glucose levels in the animals were determined with a glucose monitor (One Touch; Life Scan Inc., Milpitas, Calif.). Animals with blood glucose levels greater than 250 mg/dL were considered diabetic. The animals were divided into four groups. […] Treatment was started immediately after diabetes induction. […]\nRetinal FITC-Dextran Leakage: BN rats from each group were used for the assessment of FITC-dextran leakage. […] The relative FITC-dextran fluorescence units in 1 ml of supernatant were measured using a spectrofluorometer set at an excitation wavelength of 483 nm and an emission wavelength of 538 nm. Fluorescence of blank PBS was also\nmeasured for subtraction from each sample reading. Final concentration of FITC-dextran was expressed as μg/g tissue. […] 20 μ (˜20 mg) of plasma was diluted to 1 ml (50 times dilution) with PBS for quantification under the linear range of the standard samples. […] The amount of FITC-dextran leakage in to the ocular tissues was calculated using the following equation, after correcting for dilutions."}, "[5]": {"settings": "for binding/association constant (K, Ka) with melanin: 1 mg/ml melanin suspension in PBS (pH 7.4), 37° C., celecoxib 2 μg/ml, pro-drugs 250 μg/ml"}, "[6]": {"tested_on": "retinal leukostasis", "settings": "diabetic rats; eye drops twice daily for 60 days; C-SA 0.2% w/v, C-SA-T 1.0% w/v", "experimental": "After overnight fasting for 12-16 h, an intraperitoneal injection of 30 mg/ml solution of streptozotocin in 10 mM citrate buffer (pH 4.5) was administered (60 mg/kg body weight) to induce diabetes. After 3-4 h of streptozotocin injection, animals were put on regular diet and 24 h after streptozotocin injection, blood sample (5-10 μl) was collected via tail vein. The blood glucose levels in the animals were determined with a glucose monitor (One Touch; Life Scan Inc., Milpitas, Calif.). Animals with blood glucose levels greater than 250 mg/dL were considered diabetic. The animals were divided into four groups. […] Treatment was started immediately after diabetes induction. Both eyes were dosed twice daily for 60 days in group 2, 3 and 4 with their respective treatment. Animals in groups 2-4 were sacrificed at the end of 2 months. Normal animals in group 1 were sacrificed immediately after acclimatization in the animal facility. For each of the three assays, namely, FITC-Dextran leakage, vitreous-to-plasma protein ratio, and leukostasis, we used 4 animals from each of the four groups mentioned above.\nBN rats from each group were used for the assessment of adherent leukocytes. At 1 hour after last dose on day 61, rats were sacrificed for ex-vivo retinal leukostasis assay. First, the animals were anesthetized with ketamine (80 mg/kg) and xylazine (12 mg/kg) administered intraperitoneally. […]"}, "[7]": {"settings": "10 μl eye drop, 2 mg/ml; 1 h", "experimental": "At the end of 1 h, the animals were euthanized and the eyes were enucleated. Periocular tissue and plasma samples were collected.\nSample processing: Acetonitrile precipitation method was used for drug extraction from the tissues. Briefly, eyes from each eye drop study were dissected for tissue isolation. Tissues were homogenized in 250 μl water (pH 7.4 adjusted with 5 mM ammonium acetate) containing indoprofen as internal standard at a concentration of 500 ng/ml (1000 ng/ml stock was made). Similar volume of acetonitrile was added and mixed well by vortexing for 30 minutes. Samples were centrifuged at 15,000 rpm for 30 minutes. Supernatant was collected for LC-MS/MS analysis.\nTotal run time was 5.5 min."}, "[8]": {"assay": "Aqueous solubility (Solaq) listed in physicochemical property tables", "settings": "pH 7.4, 25° C."}, "[9]": {"assay": "In vitro transport across bovine cornea", "description": "(§1) Freshly excised bovine eyes procured from a local slaughter house were used for all in vitro transport studies. Fatty or adherent tissue all around the eye is removed first. Cornea and conjunctiva were then removed. For isolation of sclera and choroid-RPE (CRPE), the anterior segment of the eye was removed with a circumferential cut below the limbus. The eye was cut into two halves along the geometric axis, a line joining the anterior pole (corneal center) and the posterior pole (center of the scleral curve), and the vitreous was removed. Neural retina was removed by exposing the eyecup to isotonic assay buffer at pH 7.4. Equatorial region of the remaining sclera-choroid-RPE (SCRPE) was used as is for SCRPE transport studies. All transport studies for celecoxib were performed in presence of 5% HP-β-CD. […] Drug solutions were prepared in the following manner: Celecoxib (100 μg/ml) in presence of 5% HP-β-CD was made after triturating celecoxib with HP-β-CD in a pestle-mortar followed by addition of assay buffer. The mixture was stirred for 24 h. Before use, the clear solution was filtered through 0.2 μ filter. […] All transport experiments were performed for 6 h at 37° C. Samples were collected at regular time intervals from the receiver side with replacement with fresh assay buffer (pH 7.4). Transport studies with all solutes were performed in A to B direction meaning outward to inward (eg. sclera towards choroid-RPE) movement of the solute was measured. […] Samples from all the transport studies were analyzed on LC-MS/MS."}, "[10]": {"assay": "In vitro transport across bovine sclera-choroid-RPE (celecoxib series)", "description": "as §1"}, "[11]": {"assay": "In vitro transport across bovine conjunctiva", "description": "Freshly excised bovine eyes procured from a local slaughter house were used for all in vitro transport studies. Fatty or adherent tissue all around the eye is removed first. Cornea and conjunctiva were then removed. For isolation of sclera and choroid-RPE (CRPE), the anterior segment of the eye was removed with a circumferential cut below the limbus. The eye was cut into two halves along the geometric axis, a line joining the anterior pole (corneal center) and the posterior pole (center of the scleral curve), and the vitreous was removed. Neural retina was removed by exposing the eyecup to isotonic assay buffer at pH 7.4. Equatorial region of the remaining sclera-choroid-RPE (SCRPE) was used as is for SCRPE transport studies. All transport studies for celecoxib were performed in presence of 5% HP-β-CD. […] Drug solutions were prepared in the following manner: Celecoxib (100 μg/ml) in presence of 5% HP-β-CD was made after triturating celecoxib with HP-β-CD in a pestle-mortar followed by addition of assay buffer. The mixture was stirred for 24 h. Before use, the clear solution was filtered through 0.2 μ filter. […] Transport studies with all solutes were performed in A to B direction meaning outward to inward (eg. sclera towards choroid-RPE) movement of the solute was measured. […] Samples from all the transport studies were analyzed on LC-MS/MS."}, "[12]": {"assay": "In vitro transscleral transport of budesonide/budesonide pro-drugs", "type": "in vitro ADME, bovine", "settings": "sclera to RPE direction (A to B); 6 h; 37° C.", "description": "Freshly excised bovine eyes were used in all studies. […] Equatorial region of the remaining sclera-choroid-[…]) was used as is for SCRPE transport studies. […] Isotonic assay buffer (pH 7.4) with the following composition was used during the entire tissue isolation procedure and transport study: […] Two hundred microliters of sample was collected from the receiver side at specific time intervals and replenished with fresh buffer. The drug/pro-drug content in the receiver and donor samples was analyzed using an LC-MS/MS method."}, "[13]": {"tested_on": "ARPE19 cells", "settings": "at nanomolar concentrations, glucocorticoid-receptor mediated; cited from earlier work"}, "[14]": {"tested_on": "blood retinal barrier leakage", "settings": "diabetic rats; eye drops twice daily for 60 days; C-SA 0.2% w/v, C-SA-T 1.0% w/v", "description": "The animals were divided into four groups.\nPlasma samples were stored at −80° C.", "remark": "listed apart in the source"}, "[15]": {"settings": "Group 2, 25 μl of 1 mg/ml suspension, posterior subconjunctival, 1 h"}, "[16]": {"settings": "end of 6 h, 37° C., 100 μg/ml, celecoxib in 5% HP-β-CD"}}, "note": "Where “and” joins values, the source holds several entries; their conditions need not be identical. Equal entries are not always repeated."}
{"compound": "Succinic acid mono-budesonide ester [budesonide succinate]", "values": [{"measurement": "contribution of active diffusion in BSA transport", "setting": "[1]", "result": 0.5, "unit": "%"}, {"measurement": "ex vivo drug level (pro-drug) in CRPE", "setting": "[2]; [15]", "result": 0.6, "unit": "μg/g tissue"}, {"measurement": "ex vivo drug level (pro-drug) in retina", "setting": "[2]; [15]", "result": 0.2, "unit": "μg/g tissue"}, {"measurement": "ex vivo drug level (pro-drug) in sclera", "setting": "[2]; [15]", "result": 1.9, "unit": "μg/g tissue"}, {"measurement": "ex vivo drug level (pro-drug) in vitreous", "setting": "[2]; [15]", "result": 0.05, "unit": "μg/g tissue"}, {"measurement": "ex vivo level of budesonide released from budesonide succinate in CRPE", "setting": "[2]; [15]", "result": 7.2, "unit": "μg/g tissue"}, {"measurement": "ex vivo level of budesonide released from budesonide succinate in retina", "setting": "[2]; [15]", "result": 2.2, "unit": "μg/g tissue"}, {"measurement": "ex vivo level of budesonide released from budesonide succinate in sclera", "setting": "[2]; [15]", "result": 11.0, "unit": "μg/g tissue"}, {"measurement": "ex vivo level of budesonide released from budesonide succinate in vitreous", "setting": "[2]; [15]", "result": 0.5, "unit": "μg/g tissue"}, {"measurement": "budesonide delivery in sclera, choroid-RPE and retina, higher with prodrug compared to plain drug budesonide", "setting": "[2]; rat", "result": "2-5 folds"}]}
{"compound": "Alexa-bevacizumab solution: Alexa Fluor 488 conjugated bevacizumab injected as solution (control)", "values": [{"measurement": "Alexa-bevacizumab concentration in the vitreous", "setting": "[3]", "result": 2.2, "unit": "µg/mL"}]}
{"compound": "Cc1ccc(-c2cc(C(F)(F)F)nn2-c2ccc(S(=O)(=O)NC(=O)CCC(=O)O)cc2)cc1", "note": "[C-SA, Celecoxib succinamidic acid]", "values": [{"measurement": "retinal FITC-dextran leakage (mean± s.d.)", "setting": "[4]", "result": "93.66 ± 37.08", "unit": "µL/g/min"}, {"measurement": "binding/association constant (K, Ka) with melanin", "setting": "[5]", "result": "8.89×10^3 M^−1 and 8.89 E3 M^−1"}, {"measurement": "Mean retinal leukocyte count", "setting": "[6]", "result": "95±12"}]}
{"compound": "Cc1ccc(-c2cc(C(F)(F)F)nn2-c2ccc(S(N)(=O)=O)cc2)cc1", "note": "[Celecoxib, reference compound]", "values": [{"measurement": "level in cornea, celecoxib compared with CSA", "setting": "[7]", "result": "higher than CSA"}, {"measurement": "level in iris and CRPE, celecoxib compared with C-SA", "setting": "[7]", "result": "higher"}, {"measurement": "level in periocular space, celecoxib compared with CSA", "setting": "[7]", "result": "lower than that of CSA"}, {"measurement": "binding/association constant (K, Ka) with melanin", "setting": "[5]", "result": "1.01×10^6 M^−1 and 1.01 E6 M^−1"}, {"measurement": "Solaq", "setting": "[8]; Table 2", "result": "Celecoxib (0.005) mg/ml"}, {"measurement": "Cumulative percent transport across bovine cornea", "setting": "[9]; [16]", "result": 0.017, "unit": "%"}, {"measurement": "Transport across bovine sclera-choroid-RPE", "setting": "[10]; [16]", "result": "approximately 0.1%"}, {"measurement": "Transport across bovine conjunctiva", "setting": "[11]; [16]", "result": 3.9, "unit": "%"}]}
{"compound": "CCCC1O[C@@H]2C[C@H]3[C@@H]4CCC5=CC(=O)C=C[C@]5(C)[C@H]4[C@@H](O)C[C@]3(C)[C@]2(C(=O)CO)O1", "note": "(stereo partly drawn) [Budesonide]", "values": [{"measurement": "cumulative percentage transport", "setting": "[12]", "result": 0.2, "unit": "%"}, {"measurement": "Solaq", "setting": "[8]; Table 1", "result": "Budesonide (0.02) mg/ml"}, {"measurement": "VEGF secretion and mRNA expression", "setting": "[13]", "result": "capable of reducing"}]}
{"compound": "Cc1ccc(-c2cc(C(F)(F)F)nn2-c2ccc(S(=O)(=O)NC(=O)CCC(=O)NCCS(=O)(=O)O)cc2)cc1", "note": "[C-SA-T, celecoxib succinamidic acid taurine]", "values": [{"measurement": "retinal FITC-dextran leakage (mean± s.d.)", "setting": "[4]", "result": "23.64 ± 4.20", "unit": "µL/g/min"}, {"measurement": "binding/association constant (K, Ka) with melanin", "setting": "[5]", "result": "7.39×10^3 M^−1 and 7.93 E3 M^−1"}, {"measurement": "melanin binding, fold lower than that of celecoxib", "setting": "[5]; ITC", "result": "~130", "unit": "fold"}, {"measurement": "average vitreous-to-plasma protein ratio", "setting": "[14]", "result": "0.28±0.06"}, {"measurement": "Transport across bovine cornea, times higher than celecoxib", "setting": "[9]", "result": "~25", "unit": "times"}, {"measurement": "reduction in transport across cornea with taurine as an inhibitor", "setting": "[9]", "result": "> 50", "unit": "%"}, {"measurement": "Mean retinal leukocyte count", "setting": "[6]", "result": "47±10"}, {"measurement": "Transport across bovine sclera-choroid-RPE, times higher than celecoxib", "setting": "[10]", "result": "~20", "unit": "times"}, {"measurement": "reduction in transport across SCRPE with taurine as an inhibitor", "setting": "[10]", "result": "> 50", "unit": "%"}, {"measurement": "Transport across bovine conjunctiva, times higher than celecoxib", "setting": "[11]", "result": "~4", "unit": "times"}]}
{"compound": "CN(C)C[C@@H]1CCn2cc(c3ccccc32)C2=C(C(=O)NC2=O)c2cn(c3ccccc23)CCO1", "note": "[Ruboxistaurin]", "values": [{"measurement": "Solaq", "setting": "[8]; Table 4", "result": "Ruboxistaurin (0.029) mg/ml"}]}
